For the assay, the system named is MV4-11 cells. Briefly: Cell proliferation assay MV4;11 (CellTiter-Glo, 72 hours). Type of assay: cell-based. The settings on record: Homo sapiens; MV4;11 leukemia cell line, 72 hours; read-out: MV4; 11 IC50. In a few lines: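 Luminescent CellTiter-Glo readout after 72 h culture, 37 °C, 5% CO2, expressed relative to vehicle-treated wells, with maximal inhibition taken at the highest dose. MLL-rearranged MV4-11 leukemia cells; final compound range 0.632 to 2000 nM in eight steps.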
On the technique in general: ATP-based viability assays read luminescence as a measure of living cells.

pIC50: −log10 of the molar value. A value given as a limit tells only on which side of the number the result lay.

Regarding `CC(C)N(C(=O)c1cc(F)ccc1Oc1cncnc1N1CC2(CCN(C[C@@H]3CC[C@@H](NS(=O)(=O)N(C)C)CO3)CC2)C1)C1CC(F)(F)C1` [Example 113, N-(3,3-Difluorocyclobutyl)-2-((4-(7-(((2S,5R)-5-((N,N-dimethylsulfamoyl)amino)tetrahydro-2H-pyran-2-yl)methyl)-2,7-diazaspiro[3.5]nonan-2-yl)pyrimidin-5-yl)oxy)-5-fluoro-N-isopropylbenzamide], the pIC50 is more than 7.00. With `CCN(CC)S(=O)(=O)N[C@@H]1CC[C@@H](CN2CCC3(CC2)CN(c2ncncc2Oc2ccc(F)cc2C(=O)N(C(C)C)C2CC(F)(F)C2)C3)OC1` [Example 114, 2-((4-(7-(((2S,5R)-5-((N,N-Diethylsulfamoyl)amino)tetrahydro-2H-pyran-2-yl)methyl)-2,7-diazaspiro[3.5]nonan-2-yl)pyrimidin-5-yl)oxy)-N-(3,3-difluorocyclobutyl)-5-fluoro-N-isopropylbenzamide] the figure was more than 7.00; with `CC(C)N(C(=O)c1cc(F)ccc1Oc1cncnc1N1CC2(CCN(C[C@@H]3CC[C@@H](NS(=O)(=O)C4COC4)CO3)CC2)C1)C1CC(F)(F)C1` [Example 115, N-(3,3-Difluorocyclobutyl)-5-fluoro-N-isopropyl-2-((4-(7-(((2S,5R)-5-(oxetane-3-sulfonamido)tetrahydro-2H-pyran-2-yl)methyl)-2,7-diazaspiro[3.5]nonan-2-yl)pyrimidin-5-yl)oxy)benzamide], more than 7.00.

Regarding `CC(C)N(C(=O)c1cc(F)ccc1Oc1cncnc1N1CC2(CCN(C[C@@H]3CC[C@@H](NS(=O)(=O)N4CCOCC4)CO3)CC2)C1)C1CC(F)(F)C1` [Example 116, N-(3,3-Difluorocyclobutyl)-5-fluoro-N-isopropyl-2-((4-(7-(((2S,5R)-5-(morpholine-4-sulfonamido)tetrahydro-2H-pyran-2-yl)methyl)-2,7-diazaspiro[3.5]nonan-2-yl)pyrimidin-5-yl)oxy)benzamide], the pIC50 was more than 7.00.

On to `CC(C)N(C(=O)c1cc(F)ccc1Oc1cncnc1N1CC2(CCN(C[C@@H]3CC[C@@H](NS(N)(=O)=O)CO3)CC2)C1)C1CC(F)(F)C1` [Example 117, N-(3,3-Difluorocyclobutyl)-5-fluoro-N-isopropyl-2-((4-(7-(((2S,5R)-5-(sulfamoylamino)tetrahydro-2H-pyran-2-yl)methyl)-2,7-diazaspiro[3.5]nonan-2-yl)pyrimidin-5-yl)oxy)benzamide], for which the pIC50 was more than 7.00. With `CC(C)N(C(=O)c1cc(F)ccc1Oc1cncnc1N1CC2(CCN(C[C@@H]3CC[C@@H](NS(=O)(=O)N4CCC4)CO3)CC2)C1)C1CC(F)(F)C1` [Example 118, 2-((4-(7-(((2S,5R)-5-(Azetidine-1-sulfonamido)tetrahydro-2H-pyran-2-yl)methyl)-2,7-diazaspiro[3.5]nonan-2-yl)pyrimidin-5-yl)oxy)-N-(3,3-difluorocyclobutyl)-5-fluoro-N-isopropylbenzamide] the figure was more than 7.00; with `CC(C)N(C(=O)c1cc(F)ccc1Oc1cncnc1N1CC2(CCN(C[C@@H]3CC[C@@H](NS(=O)(=O)N(C)C(C)C)CO3)CC2)C1)C1CC(F)(F)C1` [Example 119, N-(3,3-Difluorocyclobutyl)-5-fluoro-N-isopropyl-2-((4-(7-(((2S,5R)-5-((N-isopropyl-N-methylsulfamoyl)amino)tetrahydro-2H-pyran-2-yl)methyl)-2,7-diazaspiro[3.5]nonan-2-yl)pyrimidin-5-yl)oxy)benzamide], more than 7.00; with `C[C@@H]1COC[C@@H](C)N1C(=O)c1cc(F)ccc1Oc1cncnc1N1CC2(CCN(C[C@@H]3CC[C@@H](NS(=O)(=O)c4ccccc4)CO3)CC2)C1` [Example 120, N-((3R,6S)-6-((2-(5-(2-((3R,5R)-3,5-Dimethylmorpholine-4-carbonyl)-4-fluorophenoxy)pyrimidin-4-yl)-2,7-diazaspiro[3.5]nonan-7-yl)methyl)tetrahydro-2H-pyran-3-yl)benzenesulfonamide], more than 7.00. Take `C[C@@H]1COC[C@@H](C)N1C(=O)c1cc(F)ccc1Oc1cncnc1N1CC2(CCN(C[C@@H]3CC[C@@H](NS(=O)(=O)N4CCC4)CO3)CC2)C1` [Example 121, N-((3R,6S)-6-((2-(5-(2-((3R,5R)-3,5-Dimethylmorpholine-4-carbonyl)-4-fluorophenoxy)pyrimidin-4-yl)-2,7-diazaspiro[3.5]nonan-7-yl)methyl)tetrahydro-2H-pyran-3-yl)azetidine-1-sulfonamide]: the pIC50 is more than 7.00. For `Cc1nc(S(=O)(=O)N[C@@H]2CC[C@@H](CN3CCC4(CC3)CN(c3ncncc3Oc3ccc(F)cc3C(=O)N3[C@H](C)COC[C@H]3C)C4)OC2)cs1` [Example 122, N-((3R,6S)-6-((2-(5-(2-((3R,5R)-3,5-Dimethylmorpholine-4-carbonyl)-4-fluorophenoxy)pyrimidin-4-yl)-2,7-diazaspiro[3.5]nonan-7-yl)methyl)tetrahydro-2H-pyran-3-yl)-2-methylthiazole-4-sulfonamide], the pIC50 was more than 7.00. As for `C[C@@H]1COC[C@@H](C)N1C(=O)c1cc(F)ccc1Oc1cncnc1N1CC2(CCN(C[C@@H]3CC[C@@H](NS(=O)(=O)N(C)C)CO3)CC2)C1` [Example 123, {[(3R,6S)-6-{[2-(5-{2-[(3R,5R)-3,5-Dimethylmorpholine-4-carbonyl]-4-fluorophenoxy}pyrimidin-4-yl)-2,7-diazaspiro[3.5]nonan-7-yl]methyl}oxan-3-yl]sulfamoyl}dimethylamine], the pIC50 was more than 7.00. For `C[C@@H]1COC[C@@H](C)N1C(=O)c1cc(F)ccc1Oc1cncnc1N1CC2(CCN(C[C@@H]3CC[C@@H](NS(=O)(=O)N4CCCC4)CO3)CC2)C1` [Example 124, N-((3R,6S)-6-((2-(5-(2-((3R,5R)-3,5-Dimethylmorpholine-4-carbonyl)-4-fluorophenoxy)pyrimidin-4-yl)-2,7-diazaspiro[3.5]nonan-7-yl)methyl)tetrahydro-2H-pyran-3-yl)pyrrolidine-1-sulfonamide], the pIC50 was more than 7.00. To `CCNS(=O)(=O)N[C@@H]1CC[C@@H](CN2CCC3(CC2)CN(c2ncncc2Oc2ccc(F)cc2C(=O)N2[C@H](C)COC[C@H]2C)C3)OC1` [Example 125, {[(3R,6S)-6-{[2-(5-{2-[(3R,5R)-3,5-Dimethylmorpholine-4-carbonyl]-4-fluorophenoxy}pyrimidin-4-yl)-2,7-diazaspiro[3.5]nonan-7-yl]methyl}oxan-3-yl]sulfamoyl}(ethyl)amine] belongs more than 7.00; to `C[C@@H]1COC[C@@H](C)N1C(=O)c1cc(F)ccc1Oc1cncnc1N1CC2(CCN(C[C@@H]3CC[C@@H](NS(=O)(=O)c4cnn(C)c4)CO3)CC2)C1` [Example 126, N-((3R,6S)-6-((2-(5-(2-((3R,5R)-3,5-Dimethylmorpholine-4-carbonyl)-4-fluorophenoxy)pyrimidin-4-yl)-2,7-diazaspiro[3.5]nonan-7-yl)methyl)tetrahydro-2H-pyran-3-yl)-1-methyl-1H-pyrazole-4-sulfonamide], more than 7.00; to `C[C@@H]1COC[C@@H](C)N1C(=O)c1cc(F)ccc1Oc1cncnc1N1CC2(CCN(C[C@@H]3CC[C@@H](NS(=O)(=O)c4ccn(C)n4)CO3)CC2)C1` [Example 127, N-((3R,6S)-6-((2-(5-(2-((3R,5R)-3,5-Dimethylmorpholine-4-carbonyl)-4-fluorophenoxy)pyrimidin-4-yl)-2,7-diazaspiro[3.5]nonan-7-yl)methyl)tetrahydro-2H-pyran-3-yl)-1-methyl-1H-pyrazole-3-sulfonamide], more than 7.00. For the compound `CCN(C)S(=O)(=O)N[C@@H]1CC[C@@H](CN2CCC3(CC2)CN(c2ncncc2Oc2ccc(F)cc2C(=O)N2[C@H](C)COC[C@H]2C)C3)OC1` [Example 128, {[(3R,6S)-6-{[2-(5-{2-[(3R,5R)-3,5-Dimethylmorpholine-4-carbonyl]-4-fluorophenoxy}pyrimidin-4-yl)-2,7-diazaspiro[3.5]nonan-7-yl]methyl}oxan-3-yl]sulfamoyl}(ethyl)methylamine], the pIC50 was more than 7.00. With `C[C@@H]1COC[C@@H](C)N1C(=O)c1cc(F)ccc1Oc1cncnc1N1CC2(CCN(C[C@@H]3CC[C@@H](NS(=O)(=O)N(C)C4CC4)CO3)CC2)C1` [Example 129, N-{[(3R,6S)-6-{[2-(5-{2-[(3R,5R)-3,5-Dimethylmorpholine-4-carbonyl]-4-fluorophenoxy}pyrimidin-4-yl)-2,7-diazaspiro[3.5]nonan-7-yl]methyl}oxan-3-yl]sulfamoyl}-N-methylcyclopropanamine] the figure was more than 7.00; with `C[C@@H]1COC[C@H](C)N1C(=O)c1cc(F)ccc1Oc1cncnc1N1CC2(CCN(C[C@@H]3CC[C@@H](NS(=O)(=O)c4ccccc4)CO3)CC2)C1` [Example 130, N-((3R,6S)-6-((2-(5-(2-((3S,5R)-3,5-Dimethylmorpholine-4-carbonyl)-4-fluorophenoxy)pyrimidin-4-yl)-2,7-diazaspiro[3.5]nonan-7-yl)methyl)tetrahydro-2H-pyran-3-yl)benzenesulfonamide], more than 7.00; with `Cc1nc(S(=O)(=O)N[C@@H]2CC[C@@H](CN3CCC4(CC3)CN(c3ncncc3Oc3ccc(F)cc3C(=O)N3[C@H](C)COC[C@@H]3C)C4)OC2)cs1` [Example 131, N-((3R,6S)-6-((2-(5-(2-((3S,5R)-3,5-Dimethylmorpholine-4-carbonyl)-4-fluorophenoxy)pyrimidin-4-yl)-2,7-diazaspiro[3.5]nonan-7-yl)methyl)tetrahydro-2H-pyran-3-yl)-2-methylthiazole-4-sulfonamide], more than 7.00.

In the case of `CC(C)N(C(=O)c1cc(F)ccc1Oc1cncnc1N1CC2(CCN(C[C@@H]3CC[C@@H](NS(=O)(=O)C(C)C)CO3)CC2)C1)[C@@H]1CCOC1` [Example 132, 5-Fluoro-N-isopropyl-2-((4-(7-(((2S,5R)-5-((1-methylethyl)sulfonamido)tetrahydro-2H-pyran-2-yl)methyl)-2,7-diazaspiro[3.5]nonan-2-yl)pyrimidin-5-yl)oxy)-N-((R)-tetrahydrofuran-3-yl)benzamide], the pIC50 is more than 7.00.

Source of the values: patent US11919901B2 (Syndax Pharmaceuticals, Inc., priority 2021, dated 2024).
